Assay: recombinant barcode read abundance after kanamycin selection (control-corrected) (log10(CPM+1)); higher = more efficient recombination; sequences stand for … in AGTGCAGAGAAAATCGGCCAGTTTTCTCTGCCTGCAGTCCGCATGCCGT…AGATTTATGCAGCGGACTGCCTTTCTCCCAAAGTGATAAACCGGACAGTATCATGGACCGGTTTTCCCGGTAATCCGTATTTGCAAGGTTGGTTTCACT; site = the 11-nt target
Procedure, shortened: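 In a pooled screen in E. coli, targets were paired with target-binding loops of the IS621 bridge RNA. Each oligo carried a promoter, a target, a barcode and the first 104 bridge RNA bases driven by J23119, and was Gibson-cloned into a vector holding the remaining 73 bp and a T7-inducible recombinase before co-electroporation with a donor plasmid. Duplicate platings went onto chloramphenicol/ampicillin LB agar as the control or onto chloramphenicol/ampicillin/kanamycin with 0.1 mM IPTG. Recombination efficiency is the averaged, control-corrected count per million of barcodes at recombinant junctions, given as log10(CPM+1).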
In the case of “TAACCTACTTGGGTTCTAACCTGTTGCCT (site TAACCTGCTAG)”, the “recombinant barcode read abundance (log10)” value is reported as 0.0455.
In the case of “TAACCTACTTGGGTTCTAACCTGTTGCCT (site TAACCTTCTAG)”, the “recombinant barcode read abundance (log10)” value is reported as 0.0774.
In the case of “TAACCTACTTGGGTTCTAACCTGTTGCTA (site GGTGAGGCTAT)”, the “recombinant barcode read abundance (log10)” value is reported as 0.0991.
With “TAACCTACTTGGGTTCTAACCTGTTGCTA (site TAACCTACTTA)” the “recombinant barcode read abundance (log10)” value was 0.864.
For “TAACCTCCTTGGGTTCTAACCTGTTGCCT (site TAACCTACTAG)”, the “recombinant barcode read abundance (log10)” value was 0.0181.
For “TAACCTCCTTGGGTTCTAACCTGTTGCCT (site TAACCTCCTAG)”, the “recombinant barcode read abundance (log10)” value was 0.444.
With “TAACCTCCTTGGGTTCTAACCTGTTGCCT (site TAACCTGCTAG)” the “recombinant barcode read abundance (log10)” value was 0.0867.
For “TAACCTCCTTGGGTTCTAACCTGTTGCCT (site TAACCTTCTAG)”, the “recombinant barcode read abundance (log10)” value was 0.127.
With “TAACGACCTTGGGTTCTAACCTGTTGCCT (site AAACGACCTAG)” the “recombinant barcode read abundance (log10)” value was 0.
In the case of “TAACGACCTTGGGTTCTAACCTGTTGCCT (site CAACGACCTAG)”, the “recombinant barcode read abundance (log10)” value is reported as 0.055.
For “TAACGACCTTGGGTTCTAACCTGTTGCCT (site GAACGACCTAG)”, the “recombinant barcode read abundance (log10)” value was 0.0956.
With “TAACGACCTTGGGTTCTAACCTGTTGCCT (site TAACGACCTAG)” the “recombinant barcode read abundance (log10)” value was 1.42.
With “TAACGGCCTTGGGTTCTAACCTGTTGCCT (site TAACGGCCTAG)” the “recombinant barcode read abundance (log10)” value was 0.539.
In the case of “TAACGGCCTTGGGTTCTAACCTGTTGCCT (site TACCGGCCTAG)”, the “recombinant barcode read abundance (log10)” value is reported as 0.504.
With “TAACGGCCTTGGGTTCTAACCTGTTGCCT (site TAGCGGCCTAG)” the “recombinant barcode read abundance (log10)” value was 0.198.
For “TAACGGCCTTGGGTTCTAACCTGTTGCCT (site TATCGGCCTAG)”, the “recombinant barcode read abundance (log10)” value was 0.0776.
For “TAACGTCCTTGGGTTCTAACCTGTTGCGT (site TAACGTACTCC)”, the “recombinant barcode read abundance (log10)” value was 0.0665.
In the case of “TAACGTCCTTGGGTTCTAACCTGTTGCGT (site TAACGTCCTAC)”, the “recombinant barcode read abundance (log10)” value is reported as 1.4.
In the case of “TAACGTTCTTGGGTTCTAACCTGTTGCCT (site TAACGTTCTAG)”, the “recombinant barcode read abundance (log10)” value is reported as 0.385.
With “TAACGTTCTTGGGTTCTAACCTGTTGCCT (site TACCGTTCTAG)” the “recombinant barcode read abundance (log10)” value was 0.0273.
For “TAAGATCCTTGGGTTCTAACCTGTTGCCT (site TAAGATCCTAG)”, the “recombinant barcode read abundance (log10)” value was 1.63.
For “TAAGATCCTTGGGTTCTAACCTGTTGCCT (site TAGGCTCCTAG)”, the “recombinant barcode read abundance (log10)” value was 0.0611.
In the case of “TAAGCTACTTGGGTTCTAACCTGTTGCTG (site TAAGCCTCTCA)”, the “recombinant barcode read abundance (log10)” value is reported as 0.0237.
With “TAAGCTACTTGGGTTCTAACCTGTTGCTG (site TAAGCTACTCA)” the “recombinant barcode read abundance (log10)” value was 0.885.
With “TACAATTCTTGGGTTCTAACCTGTTGCAT (site GGGCTCCCTCG)” the “recombinant barcode read abundance (log10)” value was 0.0564.
For “TACAATTCTTGGGTTCTAACCTGTTGCAT (site TACAATTCTAT)”, the “recombinant barcode read abundance (log10)” value was 0.03.
For “TACAGCCCTTGGGTTCTAACCTGTTGCCT (site TACAGCCCTAG)”, the “recombinant barcode read abundance (log10)” value was 0.932.
In the case of “TACAGCCCTTGGGTTCTAACCTGTTGCCT (site TTCAGCCCTAG)”, the “recombinant barcode read abundance (log10)” value is reported as 0.183.
In the case of “TACAGTACTTGGGTTCTAACCTGTTGCCT (site AACAGTACTAG)”, the “recombinant barcode read abundance (log10)” value is reported as 0.0317.
In the case of “TACAGTACTTGGGTTCTAACCTGTTGCCT (site CACAGTACTAG)”, the “recombinant barcode read abundance (log10)” value is reported as 0.326.
In the case of “TACAGTACTTGGGTTCTAACCTGTTGCCT (site GACAGTACTAG)”, the “recombinant barcode read abundance (log10)” value is reported as 0.325.
For “TACAGTACTTGGGTTCTAACCTGTTGCCT (site TACAGTACTAG)”, the “recombinant barcode read abundance (log10)” value was 0.291.
With “TACATCCCTTGGGTTCTAACCTGTTGCCG (site TACATCCCTAG)” the “recombinant barcode read abundance (log10)” value was 0.0934.
For “TACATCCCTTGGGTTCTAACCTGTTGCCG (site TACATCCCTCG)”, the “recombinant barcode read abundance (log10)” value was 0.623.
For “TACATCCCTTGGGTTCTAACCTGTTGCCG (site TACATCCCTGG)”, the “recombinant barcode read abundance (log10)” value was 0.0502.
With “TACATCCCTTGGGTTCTAACCTGTTGCCG (site TACATCCCTTG)” the “recombinant barcode read abundance (log10)” value was 0.0738.
For “TACCAGACTTGGGTTCTAACCTGTTGCCT (site TACCAGACTAG)”, the “recombinant barcode read abundance (log10)” value was 1.26.
For “TACCAGACTTGGGTTCTAACCTGTTGCCT (site TACCCGACTAG)”, the “recombinant barcode read abundance (log10)” value was 0.033.
With “TACCAGACTTGGGTTCTAACCTGTTGCCT (site TACCGGACTAG)” the “recombinant barcode read abundance (log10)” value was 0.191.
With “TACCAGACTTGGGTTCTAACCTGTTGCCT (site TACCTGACTAG)” the “recombinant barcode read abundance (log10)” value was 0.0512.
In the case of “TACCCTTCTTGGGTTCTAACCTGTTGCGT (site CCTAAGCCTCA)”, the “recombinant barcode read abundance (log10)” value is reported as 0.0691.
With “TACCCTTCTTGGGTTCTAACCTGTTGCGT (site TACCCTTCTAC)” the “recombinant barcode read abundance (log10)” value was 1.84.
For “TACCGGACTTGGGTTCTAACCTGTTGCCT (site TACCAGACTAG)”, the “recombinant barcode read abundance (log10)” value was 0.252.
For “TACCGGACTTGGGTTCTAACCTGTTGCCT (site TACCCGACTAG)”, the “recombinant barcode read abundance (log10)” value was 0.139.
In the case of “TACCGGACTTGGGTTCTAACCTGTTGCCT (site TACCGGACTAG)”, the “recombinant barcode read abundance (log10)” value is reported as 1.56.
In the case of “TACCGGACTTGGGTTCTAACCTGTTGCCT (site TACCTGACTAG)”, the “recombinant barcode read abundance (log10)” value is reported as 0.0144.
With “TACCGGTCTTGGGTTCTAACCTGTTGCTT (site TACCAGTCTAA)” the “recombinant barcode read abundance (log10)” value was 0.18.
With “TACCGGTCTTGGGTTCTAACCTGTTGCTT (site TACCCGTCTAA)” the “recombinant barcode read abundance (log10)” value was 0.13.
For “TACCGGTCTTGGGTTCTAACCTGTTGCTT (site TACCGGTCTAA)”, the “recombinant barcode read abundance (log10)” value was 1.46.
With “TACCGGTCTTGGGTTCTAACCTGTTGCTT (site TACCTGTCTAA)” the “recombinant barcode read abundance (log10)” value was 0.00501.
In the case of “TACCTAACTTGGGTTCTAACCTGTTGCTT (site GGTTCCTCTCC)”, the “recombinant barcode read abundance (log10)” value is reported as 0.206.
For “TACCTAACTTGGGTTCTAACCTGTTGCTT (site TACCTAACTAA)”, the “recombinant barcode read abundance (log10)” value was 0.0655.
With “TACCTGCCTTGGGTTCTAACCTGTTGCGT (site GCCCTGCCTAC)” the “recombinant barcode read abundance (log10)” value was 0.0159.
For “TACCTGCCTTGGGTTCTAACCTGTTGCGT (site TACCTGCCTAC)”, the “recombinant barcode read abundance (log10)” value was 1.27.
With “TACCTGTCTTGGGTTCTAACCTGTTGCTT (site TACCAGTCTAA)” the “recombinant barcode read abundance (log10)” value was 0.139.
In the case of “TACCTGTCTTGGGTTCTAACCTGTTGCTT (site TACCCGTCTAA)”, the “recombinant barcode read abundance (log10)” value is reported as 0.251.
For “TACCTGTCTTGGGTTCTAACCTGTTGCTT (site TACCGGTCTAA)”, the “recombinant barcode read abundance (log10)” value was 0.543.
With “TACCTGTCTTGGGTTCTAACCTGTTGCTT (site TACCTGTCTAA)” the “recombinant barcode read abundance (log10)” value was 1.77.
In the case of “TACGACGCTTGGGTTCTAACCTGTTGCCT (site TAAGACGCTAG)”, the “recombinant barcode read abundance (log10)” value is reported as 0.0663.
For “TACGACGCTTGGGTTCTAACCTGTTGCCT (site TACGACGCTAG)”, the “recombinant barcode read abundance (log10)” value was 0.756.
In the case of “TACGACGCTTGGGTTCTAACCTGTTGCCT (site TAGGACGCTAG)”, the “recombinant barcode read abundance (log10)” value is reported as 0.0186.
For “TACGACGCTTGGGTTCTAACCTGTTGCCT (site TATGACGCTAG)”, the “recombinant barcode read abundance (log10)” value was 0.128.
For “TACGATACTTGGGTTCTAACCTGTTGCGT (site CTACGACCTCT)”, the “recombinant barcode read abundance (log10)” value was 0.0489.
In the case of “TACGATACTTGGGTTCTAACCTGTTGCGT (site TACGATACTAC)”, the “recombinant barcode read abundance (log10)” value is reported as 1.19.
For “TACGCTCCTTGGGTTCTAACCTGTTGCGT (site TACGCTCCTAA)”, the “recombinant barcode read abundance (log10)” value was 0.0715.
With “TACGCTCCTTGGGTTCTAACCTGTTGCGT (site TACGCTCCTAC)” the “recombinant barcode read abundance (log10)” value was 0.108.
In the case of “TACGCTCCTTGGGTTCTAACCTGTTGCGT (site TACGCTCCTAG)”, the “recombinant barcode read abundance (log10)” value is reported as 0.0936.
In the case of “TACGCTCCTTGGGTTCTAACCTGTTGCGT (site TACGCTCCTAT)”, the “recombinant barcode read abundance (log10)” value is reported as 0.501.
In the case of “TACGGTCCTTGGGTTCTAACCTGTTGCTT (site TACGGTCCTAA)”, the “recombinant barcode read abundance (log10)” value is reported as 1.08.
In the case of “TACGGTCCTTGGGTTCTAACCTGTTGCTT (site TAGGCTCCTAA)”, the “recombinant barcode read abundance (log10)” value is reported as 0.261.
With “TACGTGGCTTGGGTTCTAACCTGTTGCCT (site TACGAGGCTAG)” the “recombinant barcode read abundance (log10)” value was 0.182.
With “TACGTGGCTTGGGTTCTAACCTGTTGCCT (site TACGCGGCTAG)” the “recombinant barcode read abundance (log10)” value was 0.0139.
For “TACGTGGCTTGGGTTCTAACCTGTTGCCT (site TACGGGGCTAG)”, the “recombinant barcode read abundance (log10)” value was 0.502.
With “TACGTGGCTTGGGTTCTAACCTGTTGCCT (site TACGTGGCTAG)” the “recombinant barcode read abundance (log10)” value was 0.825.
In the case of “TACGTGTCTTGGGTTCTAACCTGTTGCTA (site TACGTGTCTTA)”, the “recombinant barcode read abundance (log10)” value is reported as 2.19.
For “TACGTGTCTTGGGTTCTAACCTGTTGCTA (site TGCGTGTCTCA)”, the “recombinant barcode read abundance (log10)” value was 0.051.
With “TACTAACCTTGGGTTCTAACCTGTTGCCT (site CATTAACCTAG)” the “recombinant barcode read abundance (log10)” value was 0.0235.
In the case of “TACTAACCTTGGGTTCTAACCTGTTGCCT (site TACTAACCTAG)”, the “recombinant barcode read abundance (log10)” value is reported as 0.752.
With “TACTACCCTTGGGTTCTAACCTGTTGCCA (site TACTACCCTTG)” the “recombinant barcode read abundance (log10)” value was 0.606.
With “TACTACCCTTGGGTTCTAACCTGTTGCCA (site TAGTATCCTTG)” the “recombinant barcode read abundance (log10)” value was 0.0944.
For “TACTACCCTTGGGTTCTAACCTGTTGCCT (site TACTACCCTAG)”, the “recombinant barcode read abundance (log10)” value was 1.46.
With “TACTACCCTTGGGTTCTAACCTGTTGCCT (site TCCTACCCTAG)” the “recombinant barcode read abundance (log10)” value was 0.126.
For “TACTACCCTTGGGTTCTAACCTGTTGCCT (site TGCTACCCTAG)”, the “recombinant barcode read abundance (log10)” value was 0.0397.
With “TACTACCCTTGGGTTCTAACCTGTTGCCT (site TTCTACCCTAG)” the “recombinant barcode read abundance (log10)” value was 0.0291.
In the case of “TACTGGGCTTGGGTTCTAACCTGTTGCGG (site TACTGGGCTCA)”, the “recombinant barcode read abundance (log10)” value is reported as 0.316.
For “TACTGGGCTTGGGTTCTAACCTGTTGCGG (site TACTGGGCTCC)”, the “recombinant barcode read abundance (log10)” value was 2.2.
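Also: IS621 recombinase and bridge RNA in Escherichia coli cells.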
